Experiments:
[1] = tested on: T1, UDP-α-D-glucose 6-dehydrogenase (HS:15.18); details: read-out: KNAD (apparent); 1.0 mM UDP-D-glucose, 50 mM triethanolamine pH 8.7, 25 °C
T1 construct: gene HS15.18

[2] = tested on: T2, UDP-α-D-glucuronate 6-decarboxylase (HS:15.19); test: anion exchange chromatography of UDP-xylose formed, […] nm; format: biochemical, Campylobacter jejuni; details: 50 mM phosphate pH 6.5
T2 construct: gene HS15.19

[3] = tested on: T3, UDP-α-D-xylose 4-epimerase (HS:15.17); details: read-out: KUDP-xyl (apparent); 50 mM HEPES/KOH pH 8.0, 25 °C
T3 construct: gene HS15.17

Compound: NC(=O)c1ccc[n+]([C@@H]2O[C@H](COP(=O)(O)OP(=O)(O)OC[C@H]3O[C@@H](n4cnc5c(N)ncnc54)[C@H](O)[C@@H]3O)[C@@H](O)[C@H]2O)c1 [NAD^+]
- Km [1]: 120 ± 10 µM
- Ka (activation constant, concentration at 1⁄2 saturation) ([2]; 2.5 mM UDP-D-glucuronate): 17 ± 5 µM

Compound: O=C(O)[C@H]1O[C@H](OP(=O)(O)OP(=O)(O)OC[C@H]2O[C@@H](n3ccc(=O)[nH]c3=O)[C@H](O)[C@@H]2O)[C@H](O)[C@@H](O)[C@@H]1O [compound 4, UDP-α-D-glucuronate]
- Km ([2]; read-out: KUDP-glc (apparent), 0.30 mM NAD+): 250 ± 30 µM

Compound: O=c1ccn([C@@H]2O[C@H](COP(=O)(O)OP(=O)(O)O[C@H]3OC[C@@H](O)[C@H](O)[C@H]3O)[C@@H](O)[C@H]2O)c(=O)[nH]1 [compound 5, UDP-α-D-xylose]
- Km [3]: 125 ± 13 µM
